Experimental data from the NIST ThermoML archive (doi:10.1016/j.fluid.2014.04.019).
Numbers after ± are expanded uncertainties.

Assay: xn = mol fraction of the nth substance listed
Conditions: 101 kPa, Liquid

OCCOCCO [diethylene glycol] + CN(C)C=O
Conditions	kinematic viscosity, 298.15 K [m2/s]	kinematic viscosity, 303.15 K [m2/s]	kinematic viscosity, 308.15 K [m2/s]	mass density, 298.15 K [kg/m3]	mass density, 303.15 K [kg/m3]	mass density, 308.15 K [kg/m3]
x2 = 0	2.76e-05 ± 1.2e-06	2.13e-05 ± 9e-07	1.68e-05 ± 7e-07	1113 ± 2.9	1109.2 ± 3	1106.1 ± 3.1
x2 = 0.0714	1.96e-05 ± 8e-07	1.53e-05 ± 7e-07	1.19e-05 ± 5e-07	1104.1 ± 2.9	1100 ± 3	1096.7 ± 3.1
x2 = 0.1393	1.57e-05 ± 7e-07	1.24e-05 ± 6e-07	9.67e-06 ± 4.5e-07	1094.9 ± 2.8	1090.8 ± 2.9	1087.3 ± 3
x2 = 0.2041	1.26e-05 ± 6e-07	1.01e-05 ± 5e-07	8.08e-06 ± 3.9e-07	1085.9 ± 2.8	1081.9 ± 2.9	1078.2 ± 3
x2 = 0.2683	1.02e-05 ± 5e-07	8.29e-06 ± 4e-07	6.7e-06 ± 3.4e-07	1076.7 ± 2.8	1072.6 ± 2.9	1068.7 ± 3
x2 = 0.3266	8.33e-06 ± 4e-07	6.84e-06 ± 3.4e-07	5.59e-06 ± 2.9e-07	1068.1 ± 2.8	1063.9 ± 2.9	1059.9 ± 3
x2 = 0.3834	6.84e-06 ± 3.4e-07	5.68e-06 ± 3e-07	4.69e-06 ± 2.6e-07	1059.4 ± 2.7	1055.2 ± 2.8	1051 ± 2.9
x2 = 0.4384	5.66e-06 ± 3e-07	4.76e-06 ± 2.6e-07	3.98e-06 ± 2.2e-07	1050.9 ± 2.7	1046.5 ± 2.8	1042.2 ± 2.9
x2 = 0.4917	4.71e-06 ± 2.6e-07	4e-06 ± 2.2e-07	3.38e-06 ± 1.9e-07	1042.3 ± 2.7	1037.9 ± 2.8	1033.5 ± 2.9
x2 = 0.5429	3.94e-06 ± 2.2e-07	3.38e-06 ± 1.9e-07	2.88e-06 ± 1.6e-07	1033.8 ± 2.7	1029.4 ± 2.8	1024.8 ± 2.9
x2 = 0.5865	3.4e-06 ± 1.9e-07	2.93e-06 ± 1.6e-07	–	1026.4 ± 2.6	1022 ± 2.7	–
x2 = 0.6394	2.83e-06 ± 1.6e-07	2.47e-06 ± 1.4e-07	–	1017.2 ± 2.6	1012.7 ± 2.7	–
x2 = 0.6819	2.44e-06 ± 1.4e-07	2.15e-06 ± 1.2e-07	–	1009.5 ± 2.6	1005 ± 2.7	–
x2 = 0.7294	2.08e-06 ± 1.2e-07	1.85e-06 ± 1.1e-07	–	1000.7 ± 2.6	996.1 ± 2.7	–
x2 = 0.7721	1.8e-06 ± 1e-07	1.62e-06 ± 1e-07	–	992.5 ± 2.5	987.9 ± 2.6	–
x2 = 0.813	1.57e-06 ± 9e-08	1.42e-06 ± 8e-08	–	984.5 ± 2.5	979.7 ± 2.6	–
x2 = 0.8531	1.38e-06 ± 8e-08	1.25e-06 ± 8e-08	–	976.4 ± 2.5	971.5 ± 2.6	–
x2 = 0.891	1.22e-06 ± 7e-08	1.12e-06 ± 7e-08	–	968.5 ± 2.5	963.6 ± 2.6	–
x2 = 0.9288	1.08e-06 ± 7e-08	1e-06 ± 6e-08	–	960.2 ± 2.4	955.4 ± 2.5	–
x2 = 0.9648	9.67e-07 ± 6e-08	9.04e-07 ± 5.7e-08	–	952.2 ± 2.4	947.6 ± 2.5	–
